In US20210177828A1, “TAM FAMILY KINASE /AND CSF1R KINASE INHIBITOR AND USE THEREOF” (Nanjing Transthera Biosciences Co., Ltd., priority 2018, published 2021):

Columns and labels:
Format in all cases: biochemical
CSF1R (h) = CSF1R (h) (Homo sapiens, UniProt P07333); assay: Enzymatic activity assay, CSF1R (h), [γ-33P]-ATP filter assay; conditions: 10 μM ATP, 40 min room temperature; read-out: Inhibitory activity IC50 CSF1R(h)
Description: (§1) Compounds were each dissolved in 100% DMSO to prepare stock solutions with a maximum concentration of 500 μM.
(§2) Compound working solutions (50×) were prepared by diluting a compound stock solution to a final concentration of 500, 150, 50, 15, 5, 1.5, 0.5, 0.15 and 0.05 μM.
An enzyme solution with a final concentration of 64 nM was prepared by dissolving CSF1R enzyme in a mixture of 8 mM MOPS (pH 7.0), 0.2 mM EDTA and 250 μM KKSRGDYMTMQIG. A Mg/ATP mixture of 10 mM magnesium acetate and 10 μM [γ-^33P]-ATP was used to activate the enzymatic reaction.
(§3) A compound working solution was added to a 384-well plate, with final concentrations of 10,000, 3,000, 1,000, 300, 100, 30, 10, 3 and 1 nM, and then different enzymatic reaction solutions prepared according to the above conditions were added. The reaction solutions were incubated at room temperature for 40 min, and then 0.5% phosphoric acid solutions were added to terminate the reaction. 10 μL of the reaction solution was added dropwise to P30 filter paper, washed 4 times with a 0.425% phosphoric acid solution and once with methanol, and then placed in a scintillation counter for detection. Gray analysis was performed on the results with Image J software, and IC50 values were calculated with GraphPad 5.0 software.

Mer (h) = molecular target: T1, Mer (h) (Homo sapiens, UniProt Q12866); assay: Enzymatic activity assay, Mer (h), [γ-33P]-ATP filter assay; conditions: 10 μM ATP, 40 min room temperature; read-out: Inhibitory activity IC50 Mer(h)
T1 sequence (Q12866 21-999): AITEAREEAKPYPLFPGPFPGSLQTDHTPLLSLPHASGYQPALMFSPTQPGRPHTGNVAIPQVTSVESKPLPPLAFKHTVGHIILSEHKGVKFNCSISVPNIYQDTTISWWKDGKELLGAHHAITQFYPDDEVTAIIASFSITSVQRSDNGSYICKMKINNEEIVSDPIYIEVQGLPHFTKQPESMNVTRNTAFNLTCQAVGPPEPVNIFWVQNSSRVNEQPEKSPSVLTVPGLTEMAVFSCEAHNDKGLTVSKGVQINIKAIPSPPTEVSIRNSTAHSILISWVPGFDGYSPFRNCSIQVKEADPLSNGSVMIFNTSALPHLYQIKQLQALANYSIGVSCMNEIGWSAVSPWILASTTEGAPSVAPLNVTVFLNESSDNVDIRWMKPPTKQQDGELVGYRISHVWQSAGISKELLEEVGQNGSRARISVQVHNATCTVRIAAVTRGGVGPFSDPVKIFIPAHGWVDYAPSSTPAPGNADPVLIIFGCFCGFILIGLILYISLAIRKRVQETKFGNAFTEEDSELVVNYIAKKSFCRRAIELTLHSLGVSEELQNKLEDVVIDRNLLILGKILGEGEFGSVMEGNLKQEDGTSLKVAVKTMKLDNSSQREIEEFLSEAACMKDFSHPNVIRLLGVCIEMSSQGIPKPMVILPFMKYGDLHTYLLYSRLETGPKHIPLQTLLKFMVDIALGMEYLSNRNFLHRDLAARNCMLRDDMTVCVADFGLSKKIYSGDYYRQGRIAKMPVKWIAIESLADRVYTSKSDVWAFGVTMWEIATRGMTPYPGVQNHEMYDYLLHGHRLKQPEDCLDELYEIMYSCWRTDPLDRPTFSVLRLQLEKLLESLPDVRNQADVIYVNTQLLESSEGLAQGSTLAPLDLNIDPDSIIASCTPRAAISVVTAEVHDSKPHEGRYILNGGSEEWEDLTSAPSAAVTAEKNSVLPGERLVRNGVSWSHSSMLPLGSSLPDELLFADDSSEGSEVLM
Description: as §1, §2
An enzyme solution with a final concentration of 3.1 nM was prepared by dissolving Mer (h) enzyme in a mixture of 8 mM MOPS (pH 7.0), 0.2 mM EDTA, 30 mM NaCl and 250 μM GGMEDIYFEFMGGKKK. A Mg/ATP mixture of 10 mM magnesium acetate and 10 μM [γ-^33P]-ATP was used to activate the enzymatic reaction.
as §3

Axl (h) = molecular target: T2, Axl (h) (Homo sapiens, UniProt P30530); assay: Enzymatic activity assay, Axl (h), [γ-33P]-ATP filter assay; conditions: 10 μM ATP, 40 min room temperature; read-out: Inhibitory activity IC50 Axl(h)
T2 sequence (P30530 26-894): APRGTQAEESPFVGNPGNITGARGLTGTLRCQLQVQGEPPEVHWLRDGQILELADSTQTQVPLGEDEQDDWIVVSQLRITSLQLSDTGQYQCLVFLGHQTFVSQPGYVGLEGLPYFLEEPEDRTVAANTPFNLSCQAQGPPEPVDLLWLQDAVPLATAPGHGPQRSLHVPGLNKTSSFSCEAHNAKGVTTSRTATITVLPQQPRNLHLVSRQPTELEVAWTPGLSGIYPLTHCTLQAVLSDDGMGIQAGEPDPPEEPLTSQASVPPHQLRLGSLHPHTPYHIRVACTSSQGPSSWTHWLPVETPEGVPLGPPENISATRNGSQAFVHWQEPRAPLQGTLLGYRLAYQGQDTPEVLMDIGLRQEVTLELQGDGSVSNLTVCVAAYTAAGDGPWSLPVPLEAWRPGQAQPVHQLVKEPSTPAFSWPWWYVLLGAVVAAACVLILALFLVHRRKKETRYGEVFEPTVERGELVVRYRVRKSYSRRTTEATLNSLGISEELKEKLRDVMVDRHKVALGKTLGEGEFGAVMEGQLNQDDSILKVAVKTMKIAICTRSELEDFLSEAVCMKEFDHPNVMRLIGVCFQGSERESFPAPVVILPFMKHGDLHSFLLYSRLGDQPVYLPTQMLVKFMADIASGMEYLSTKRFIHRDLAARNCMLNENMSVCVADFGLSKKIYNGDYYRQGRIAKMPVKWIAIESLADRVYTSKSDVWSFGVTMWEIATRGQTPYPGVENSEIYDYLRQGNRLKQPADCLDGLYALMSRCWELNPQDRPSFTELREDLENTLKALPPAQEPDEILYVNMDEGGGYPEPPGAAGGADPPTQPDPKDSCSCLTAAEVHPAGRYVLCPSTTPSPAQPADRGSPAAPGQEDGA
Description: as §1, §2
An enzyme solution with a final concentration of 1.7 nM was prepared by dissolving Axl (h) enzyme in a mixture of 8 mM MOPS (pH 7.0), 0.2 mM EDTA and 250 μM KKSRGDYMTMQIG. A Mg/ATP mixture of 10 mM magnesium acetate and 10 μM [γ-^33P]-ATP was used to activate the enzymatic reaction.
as §3

CSF1R (h), sequence (P07333 20-972): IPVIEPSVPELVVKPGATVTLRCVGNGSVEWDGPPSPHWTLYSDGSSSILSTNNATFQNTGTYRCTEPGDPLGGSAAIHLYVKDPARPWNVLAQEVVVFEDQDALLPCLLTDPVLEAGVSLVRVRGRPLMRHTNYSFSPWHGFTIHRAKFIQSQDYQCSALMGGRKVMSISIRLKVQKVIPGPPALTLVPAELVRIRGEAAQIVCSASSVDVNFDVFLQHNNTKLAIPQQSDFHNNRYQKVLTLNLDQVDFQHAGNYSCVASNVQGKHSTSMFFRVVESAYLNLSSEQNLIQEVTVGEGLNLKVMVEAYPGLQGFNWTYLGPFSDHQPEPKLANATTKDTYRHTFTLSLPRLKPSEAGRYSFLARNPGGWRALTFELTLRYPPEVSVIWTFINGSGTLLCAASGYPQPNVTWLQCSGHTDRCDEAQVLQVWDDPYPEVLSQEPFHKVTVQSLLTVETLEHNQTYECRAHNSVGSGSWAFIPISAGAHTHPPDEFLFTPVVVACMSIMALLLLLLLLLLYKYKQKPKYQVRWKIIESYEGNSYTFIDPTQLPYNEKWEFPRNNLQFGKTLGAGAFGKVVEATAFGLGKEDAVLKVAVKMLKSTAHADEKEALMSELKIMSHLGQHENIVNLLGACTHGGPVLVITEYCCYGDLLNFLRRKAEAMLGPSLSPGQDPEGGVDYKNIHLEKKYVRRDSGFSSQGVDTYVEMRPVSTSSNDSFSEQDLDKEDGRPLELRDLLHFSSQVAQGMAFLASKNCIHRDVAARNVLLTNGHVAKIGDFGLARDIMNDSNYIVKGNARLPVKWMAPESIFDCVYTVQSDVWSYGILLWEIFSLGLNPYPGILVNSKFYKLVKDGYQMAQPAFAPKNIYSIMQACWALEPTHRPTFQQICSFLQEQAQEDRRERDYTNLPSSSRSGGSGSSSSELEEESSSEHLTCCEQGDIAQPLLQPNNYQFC

Row | Compound | IC50 (CSF1R (h)) [nM] | IC50 (Mer (h)) [nM] | IC50 (Axl (h)) [nM]
1 | COc1cc2nccc(Oc3cnc(NC(=O)c4nn(C5CCOCC5)cc(-c5ccc(C)cc5)c4=O)nc3)c2cc1OC [Compound 18, N-(5-((6,7-dimethoxyquinolin-4-yl)oxy)pyrimidin-2-yl)-4-oxo-1-(tetrahydro-2H-pyran-4-yl)-5-(p-tolyl)-1,4-dihydropyridazin-3-carboxamide] | < 200 | 5 | 7
2 | COc1cc2nccc(Oc3cnc(NC(=O)c4cn(C5CCOCC5)cc(-c5ccc(F)cc5)c4=O)nc3)c2cc1OC [Compound 31, N-(5-((6,7-dimethoxyquinolin-4-yl)oxy)pyrimidin-2-yl)-5-(4-fluorophenyl)-4-oxo-1-(tetrahydro-2H-pyran-4-yl)-1,4-dihydropyridin-3-carboxamide] | < 200 | 8 | 15
3 | COc1cc2nccc(Oc3ccc(NC(=O)c4cc(CC5CCOCC5)cn(-c5ccc(F)cc5)c4=O)nc3)c2cc1OC [Compound 32, N-(5-((6,7-dimethoxyquinolin-4-yl)oxy)pyridin-2-yl)-1-(4-fluorophenyl)-2-oxo-5-((tetrahydro-2H-pyran-4-yl)methy 1)-1,2-dihydropyridin-3-carboxamide] | < 200 | 12 | 31
4 | COc1cc2nccc(Oc3cnc(NC(=O)c4nn(C5CCOCC5)cc(-c5ccc(F)cc5)c4=O)nc3)c2cc1OC [Compound 33, N-(5-((6,7-dimethoxyquinolin-4-yl)oxy)pyrimidin-2-yl)-5-(4-fluorophenyl)-4-oxo-1-(tetrahydro-2H-pyran-4-yl)-1,4-dihydropyridazin-3-carboxamide] | < 200 | 6 | 27
5 | COc1cc2nccc(Oc3ccc(NC(=O)c4nn(C5CCOCC5)cc(-c5ccc(F)cc5)c4=O)nc3)c2cc1OC [Compound 34, N-(5-((6,7-dimethoxyquinolin-4-yl)oxy)pyridin-2-yl)-5-(4-fluorophenyl)-4-oxo-1-(tetrahydro-2H-pyran-4-yl)-1,4-dihydropyridazin-3-carboxamide] | < 200 | 2 | 29

Other lines, results leading:

Row | IC50 (CSF1R (h)) [nM] | IC50 (Mer (h)) [nM] | IC50 (Axl (h)) [nM] | Compound
6 | < 200 | 14 | 4 | COc1cc2nccc(Oc3cnc(NC(=O)c4cn(C5CCOCC5)cc(-c5ccc(C)cc5)c4=O)nc3)c2cc1OC [Compound 20, N-(5-((6,7-dimethoxyquinolin-4-yl)oxy)pyrimidin-2-yl)-4-oxo-1-(tetrahydro-2H-pyran-4-yl)-5-(p-tolyl)-1,4-dihydropyridin-3-carboxamide]
7 | < 200 | 8 | 20 | COc1cc2nccc(Oc3ccc(NC(=O)c4cc(CC5CCOCC5)cn(-c5ccc(C)cc5)c4=O)nc3)c2cc1OC [Compound 26, N-(5-((6,7-dimethoxyquinolin-4-yl)oxy)pyridin-2-yl)-oxo-5-((tetrahydro-2H-pyran-4-yl)methyl)-1-(p-tolyl)-1,2-dihydropyridin-3-carboxamide]
8 | < 200 | 7 | 13 | COc1cc2nccc(Oc3ccc(NC(=O)c4cn(C5CCOCC5)cc(-c5ccc(F)cc5)c4=O)nc3)c2cc1OC [Compound 27, N-(5-((6,7-dimethoxyquinolin-4-yl)oxy)pyridin-2-yl)-5-(4-fluorophenyl)-4-oxo-1-(tetrahydro-2H-pyran-4-yl)-1,4-dihydropyridin-3-carboxamide]
9 | < 200 | 1 | 23 | COc1cc2nccc(Oc3ccc(NC(=O)c4nn(C5CCOCC5)cc(-c5ccc(C)cc5)c4=O)cc3F)c2cc1OC [Compound 28]
